The species entered for one experiment is Bos taurus. The experiment is described as follows: Displacement of [3H]spiperone from calf striatum dopamine receptor at 1000 nM. In general terms: Displacement assays read how much labelled ligand stays bound in the presence of the test substance.
For experiment [1], the species on record is Rattus norvegicus. The experiment is described as follows: Displacement of [3H]haloperidol from rat striatum dopamine receptor at 1000 nM.
Experiment [2] relates to Rattus norvegicus. The experiment is described as follows: Inhibition of (+)-amphetamine-induced stereotyped behavior in ip dosed rat administered 15 mins prior to (+)-amphetamine challenge measured after 15 mins. Format: functional. Particulars: read-out: MED.
A short description of experiment [3]: Displacement of [3H]haloperidol from rat striatum dopamine receptor.
The nature of experiment [4]: Displacement of [3H]spiperone from calf striatum dopamine receptor. Set-up: species or system Bos taurus.

In the case of `Br.CC(C)(C)[C@@]1(O)CCN2C[C@@H]3Cc4ccccc4Cc4cccc(c43)[C@H]2C1`, the inhibition in the experiment filed under Bos taurus and in the experiment filed under Rattus norvegicus [1] was 0% throughout. Moreover, in the experiment on Rattus norvegicus [2], the minimal effective dose was more than 25 mg/kg.
Regarding `CC(C)(C)[C@]1(O)CCN2C[C@H]3Cc4ccccc4Cc4cccc(c43)[C@@H]2C1.Cl` (racemic), the 50% inhibitory concentration (IC50) in experiment [3] and in experiment [4] was 1.7 nM throughout. Further, in the experiment on Rattus norvegicus [2], the minimal effective dose was 0.62 mg/kg.
`Br.CC(C)(C)[C@]1(O)CCN2C[C@H]3Cc4ccccc4Cc4cccc(c43)[C@@H]2C1`: the half-maximal inhibitory concentration (IC50) in experiment [3] and in experiment [4] was 0.8 nM each time. Further, in the experiment with Rattus norvegicus [2], the minimal effective dose worked out at 0.31 mg/kg.

As usually defined, the inhibition is the relative decrease from the control value, in per cent. A higher inhibition goes with strong suppression. What is called IC50 is the midpoint of a concentration-inhibition curve.

(Values after ChEMBL document CHEMBL3227957, “(+)-Isobutaclamol: a crystallographic, pharmacological, and biochemical study” (J Med Chem, 1979).)
